≈ marks a conversion by molar mass, not a printed value. Where two headings read alike, the source gives them in different places.
Tests used:
Format in all cases: physicochemical
[1] = Solubility of the allosteric effector compound in water and stabilizing agent solutions
Method: (§1) The pKa for 2-[4-[2-[(3,5-dimethylphenyl)amino]-2-oxoethyl]phenoxy]-2-methyl-propionic acid is about 3.5. Accordingly, there is an appreciable solubility at a pH of 7. The solubility of the sodium salt of 2-[4-[2-[(3,5-dimethylphenyl)amino]-2-oxoethyl]phenoxy]-2-methyl-propionic acid at a pH of 7 is about 50 mg/ml. […] It is thought that the addition of a stabilizing agent maintains the integrity of this small aggregate-like species.
This unforeseen problem of formation of particulate matter at concentrations beneath the solubility of the compound is solved by the addition of a stabilizing agent. The effect of the stabilizing agent is to prevent or minimize the formation of sub-visual particulates. In some embodiments, the stabilizing agent may also act as a buffer to stabilize the pH of the solution. In other embodiments, the stabilizing agent and buffering agent are different. The stabilizing agent acts to prevent the formation of significant amounts of sub-visual particulate matter, particularly after heat sterilization. The result is a formulation that can be terminally sterilized, have a long shelf life, and meet the USP 25 <788> sub-visual particulate matter requirements. Without being bound by theory, it is believed that stabilization of pH is one factor contributing to stabilization of the formulation; however, the pH of the solution alone is insufficient to stabilize the solutions. […] If necessary, the pH of the solution can be adjusted to a pH of at least about 6, preferably from about 6 to about 11. More preferably, the pH is adjusted to about 6.5 to about 9.0. More preferably, the pH is adjusted to about 7.5 to 8.5. The pH may be adjusted by the addition of any appropriate acid or base. Suitable acids may be amino acids, carboxylic acids, phosphoric acid, hydrochloric acid or other acids suitable for pharmaceutical preparations. Suitable bases include, sodium hydroxide or other bases suitable for pharmaceutical preparations.
Accordingly, stabilizing agents having an amine group are contemplated within the scope of this invention.

pKa = assay: pKa
Method: as §1

[2] = Chemical and physical (precipitate) stability of the formulation
Method: as §1
The allosteric modifying compound is chemically and physically stable between a pH of about 6 and about 11. Preferably, the composition has a pH of at least about 6. More preferably, the composition has a pH ranging from about 6 to about 11. Most preferably, the composition has a pH ranging from about 6.5 to about 9.0.
The composition of the present invention is chemically stable and stable with respect to the formation of particulate matter for at least about thirty days. This makes the composition particularly useful at the administration site because no additional steps, such as filtering the composition, are necessary prior to administration to a patient. Time is time after sterilization.

[3] = 20 mg/mL (58.7 mmol/L), pH 7.5, no stabilizing compound, heat sterilized

SMILES	solubility ([1]; pH 7, aqueous buffer, pH of 7, read-out: solubility) [mg/mL]	pKa (pKa)	chemical degradation [2, 3]	precipitate formation after heat sterilization [2, 3]	precipitation / subvisual particulate formation in solution ([2]; 20 mg/ml, pH about 7, 25° C.)	solubility ([1]; aqueous buffer, 0.5 M arginine solution, 23° C., pH 7.2-7.5, read-out: solubility) [mg/mL]	solubility ([1]; aqueous buffer, 0.5 M tris solution, 23° C., pH 7-8, read-out: solubility) [mg/mL]	solubility ([1]; aqueous buffer, 100-200 mM meglumine solutions, 23° C., pH 7.5, read-out: increase in solubility) [mg/mL]	solubility ([1]; in water, 23° C., read-out: solubility) [mg/mL]
Cc1cc(C)cc(NC(=O)Cc2ccc(OC(C)(C)C(=O)[O-])cc2)c1.[Na+] [sodium salt of 2-[4-[2-[(3,5-dimethylphenyl)amino]-2-oxoethyl]phenoxy]-2-methyl-propionic acid]	~50								
Cc1cc(C)cc(NC(=O)Cc2ccc(OC(C)(C)C(=O)O)cc2)c1 [2-[4-[2-[(3,5-dimethylphenyl)amino]-2-oxoethyl]phenoxy]-2-methyl-propionic acid]		~3.5	stable to chemical degradation	developed a precipitate of the allosteric modifier within one week after sterilization	begins to precipitate out of solution, forming subvisual particulate	155 (≈ 454 mM)	99.9 (≈ 293 mM)	~12 (≈ 35.1 mM)	~44 (≈ 129 mM)

Source: patent publication US20030232887A1, “Preparation and use of a stable formulation of allosteric effector compounds” (priority 2002, published 2003)
